# Experiment: the assays disclosed below (unspecified, Examples 10-17)
# Conditions: assays not specified
compound,measurement,value
"Cc1ncc(CN2CCN(C(=O)OC(C)(C)C)CC2)n1Cc1ccc(C#N)c(Oc2cccc(OCCO)c2)c1 [Example 1 Step G, 1-(tert-butoxycarbonyl)-4-[1-(3-((3-(2-hydroxyethoxy)phenyl)oxy)-4-cyanobenzyl)-2-methyl-5-imidazolylmethyl]piperazine]",activity in the assays disclosed below,active

# Reference: patent US20020193283A1, “Inhibitors of prenyl-protein transferase” (priority 2000, published 2002)
